Source: ChEMBL document CHEMBL1201862, “PubChem BioAssay data set” (2004)
The source made the active and inactive calls.

What was measured:
[1] = microbe, parasite or virus in culture; type: functional; settings: Mycobacterium tuberculosis
[2] = growth suppression of PTEN-null colon cells, dose response, cell-based, HCT116 PTEN knockout (AID 1047); type: functional;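 further: HCT116 colon tumor cells with PTEN knocked out; cells exposed to compound for 60 hours before readout; potency for loss of cell viability measured by luminescence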
[3] = growth suppression of beta-catenin-knockout colon cells, dose response, cell-based, HCT116, human colon tumor (AID 1045); type: functional;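 further: HCT116 colon tumor cells with beta catenin knocked out; cells exposed to compound for 60 hours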
Hexokinase HKDC1 = biological target: T1, Hexokinase HKDC1 (Homo sapiens, UniProt Q2TB90); assay: HKDC1 hexokinase inhibitors, dose response, biochemical, W721R variant (AID 504729); type: functional
T1 sequence (Q2TB90 whole entry): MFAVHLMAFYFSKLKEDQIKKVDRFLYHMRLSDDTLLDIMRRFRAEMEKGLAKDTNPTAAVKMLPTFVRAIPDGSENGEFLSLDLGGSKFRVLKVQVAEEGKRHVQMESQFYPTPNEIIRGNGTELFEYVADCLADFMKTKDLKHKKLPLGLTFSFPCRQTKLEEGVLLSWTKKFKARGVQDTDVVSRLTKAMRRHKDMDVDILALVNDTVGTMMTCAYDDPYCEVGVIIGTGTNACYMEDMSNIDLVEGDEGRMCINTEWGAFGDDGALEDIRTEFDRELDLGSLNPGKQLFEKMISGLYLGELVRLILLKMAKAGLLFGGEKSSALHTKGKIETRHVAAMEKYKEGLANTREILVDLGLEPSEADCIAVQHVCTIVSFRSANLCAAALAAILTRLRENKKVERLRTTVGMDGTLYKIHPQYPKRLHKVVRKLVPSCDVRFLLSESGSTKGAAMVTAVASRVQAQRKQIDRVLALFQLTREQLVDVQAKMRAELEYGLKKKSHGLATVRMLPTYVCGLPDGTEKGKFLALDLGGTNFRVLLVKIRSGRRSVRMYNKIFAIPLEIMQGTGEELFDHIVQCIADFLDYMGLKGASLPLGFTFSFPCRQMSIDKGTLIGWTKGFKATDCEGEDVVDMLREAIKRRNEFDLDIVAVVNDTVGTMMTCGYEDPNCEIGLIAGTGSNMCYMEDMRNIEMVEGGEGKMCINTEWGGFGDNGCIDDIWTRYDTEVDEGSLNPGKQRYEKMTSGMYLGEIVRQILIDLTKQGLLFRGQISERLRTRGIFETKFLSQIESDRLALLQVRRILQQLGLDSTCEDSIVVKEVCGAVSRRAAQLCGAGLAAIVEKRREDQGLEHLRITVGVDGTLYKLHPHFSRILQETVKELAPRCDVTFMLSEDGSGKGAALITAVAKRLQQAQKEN

[4] = biological target: T2, Replicative DNA helicase DnaB (Mycobacterium tuberculosis, UniProt P9WMR3); assay: DnaB intein splicing inhibitors, dose response, biochemical, cell-free fluorescence (AID 449749); type: functional
T2 sequence (P9WMR3 whole entry): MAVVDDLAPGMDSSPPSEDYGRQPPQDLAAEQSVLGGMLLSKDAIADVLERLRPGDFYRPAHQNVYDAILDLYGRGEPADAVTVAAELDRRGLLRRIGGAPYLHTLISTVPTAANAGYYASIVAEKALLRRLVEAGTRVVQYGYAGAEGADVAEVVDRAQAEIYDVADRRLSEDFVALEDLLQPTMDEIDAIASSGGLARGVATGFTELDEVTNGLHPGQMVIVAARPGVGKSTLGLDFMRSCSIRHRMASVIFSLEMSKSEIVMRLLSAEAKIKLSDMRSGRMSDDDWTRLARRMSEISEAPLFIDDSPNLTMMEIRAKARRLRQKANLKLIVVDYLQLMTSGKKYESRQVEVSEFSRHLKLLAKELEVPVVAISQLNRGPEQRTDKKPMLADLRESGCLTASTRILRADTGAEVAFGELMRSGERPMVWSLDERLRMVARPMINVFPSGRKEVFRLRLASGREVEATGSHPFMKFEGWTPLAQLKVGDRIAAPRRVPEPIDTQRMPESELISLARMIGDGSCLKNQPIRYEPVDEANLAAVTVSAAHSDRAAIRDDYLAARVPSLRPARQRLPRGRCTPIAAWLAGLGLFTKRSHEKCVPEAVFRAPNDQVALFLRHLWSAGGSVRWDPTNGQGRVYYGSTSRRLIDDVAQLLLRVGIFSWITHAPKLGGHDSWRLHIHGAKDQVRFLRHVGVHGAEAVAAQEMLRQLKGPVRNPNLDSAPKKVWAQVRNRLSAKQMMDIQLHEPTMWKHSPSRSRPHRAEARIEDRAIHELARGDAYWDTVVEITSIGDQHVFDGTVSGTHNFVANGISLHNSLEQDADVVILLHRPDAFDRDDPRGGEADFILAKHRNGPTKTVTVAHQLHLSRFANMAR

Protein RecA = biological target: T3, Protein RecA (Mycobacterium tuberculosis, UniProt P9WHJ3); assay: Fluorescence Cell-Free Homogeneous Dose Retest to Identify Inhibitors of RecA-Intein Splicing Activity. [Related pubchem assays (depositor defined):AID2097, AID2223, AID489010, AID492950]; type: functional
T3 sequence (P9WHJ3 whole entry): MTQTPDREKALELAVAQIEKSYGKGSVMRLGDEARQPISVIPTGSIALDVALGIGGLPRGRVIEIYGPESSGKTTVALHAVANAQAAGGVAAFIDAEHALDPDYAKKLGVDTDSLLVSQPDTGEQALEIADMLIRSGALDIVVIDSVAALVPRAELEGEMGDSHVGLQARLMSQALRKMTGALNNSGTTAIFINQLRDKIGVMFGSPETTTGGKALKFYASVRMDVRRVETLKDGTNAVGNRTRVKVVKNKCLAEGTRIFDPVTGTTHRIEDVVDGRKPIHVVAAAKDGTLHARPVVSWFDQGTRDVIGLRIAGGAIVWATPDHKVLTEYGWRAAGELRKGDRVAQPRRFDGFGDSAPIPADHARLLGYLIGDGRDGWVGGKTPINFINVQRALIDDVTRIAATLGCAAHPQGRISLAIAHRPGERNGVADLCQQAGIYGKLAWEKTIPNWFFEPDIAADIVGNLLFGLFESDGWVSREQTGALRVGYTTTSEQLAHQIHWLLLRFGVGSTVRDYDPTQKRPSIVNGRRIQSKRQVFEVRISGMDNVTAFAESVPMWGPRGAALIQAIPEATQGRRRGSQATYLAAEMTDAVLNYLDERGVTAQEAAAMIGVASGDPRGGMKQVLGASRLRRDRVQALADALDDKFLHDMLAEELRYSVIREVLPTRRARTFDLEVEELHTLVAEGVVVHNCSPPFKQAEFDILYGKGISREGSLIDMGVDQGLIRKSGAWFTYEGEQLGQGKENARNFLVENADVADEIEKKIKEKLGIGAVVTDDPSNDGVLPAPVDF

HEK293 [5] = assay: NOD1 signaling inhibitors, primary screen, cell-based, luminescence, uHTS (AID 1578); type: functional; settings: Homo sapiens
HEK293 [6] = assay: cells; type: functional, cell-based; settings: Homo sapiens
HEK293 [7] = assay: cells; type: functional, cell-based; settings: Homo sapiens; remark: listed apart in the source
[8] = biological target: Nucleotide-binding oligomerization domain-containing protein 2 (Homo sapiens, UniProt Q9HC29); assay: NOD2 signaling inhibitors, cell-based, luminescence, uHTS, HEK293 (AID 1566); type: functional
Nucleotide-binding oligomerization domain-containing protein 2, sequence (Q9HC29 whole entry, the tested form may be a part): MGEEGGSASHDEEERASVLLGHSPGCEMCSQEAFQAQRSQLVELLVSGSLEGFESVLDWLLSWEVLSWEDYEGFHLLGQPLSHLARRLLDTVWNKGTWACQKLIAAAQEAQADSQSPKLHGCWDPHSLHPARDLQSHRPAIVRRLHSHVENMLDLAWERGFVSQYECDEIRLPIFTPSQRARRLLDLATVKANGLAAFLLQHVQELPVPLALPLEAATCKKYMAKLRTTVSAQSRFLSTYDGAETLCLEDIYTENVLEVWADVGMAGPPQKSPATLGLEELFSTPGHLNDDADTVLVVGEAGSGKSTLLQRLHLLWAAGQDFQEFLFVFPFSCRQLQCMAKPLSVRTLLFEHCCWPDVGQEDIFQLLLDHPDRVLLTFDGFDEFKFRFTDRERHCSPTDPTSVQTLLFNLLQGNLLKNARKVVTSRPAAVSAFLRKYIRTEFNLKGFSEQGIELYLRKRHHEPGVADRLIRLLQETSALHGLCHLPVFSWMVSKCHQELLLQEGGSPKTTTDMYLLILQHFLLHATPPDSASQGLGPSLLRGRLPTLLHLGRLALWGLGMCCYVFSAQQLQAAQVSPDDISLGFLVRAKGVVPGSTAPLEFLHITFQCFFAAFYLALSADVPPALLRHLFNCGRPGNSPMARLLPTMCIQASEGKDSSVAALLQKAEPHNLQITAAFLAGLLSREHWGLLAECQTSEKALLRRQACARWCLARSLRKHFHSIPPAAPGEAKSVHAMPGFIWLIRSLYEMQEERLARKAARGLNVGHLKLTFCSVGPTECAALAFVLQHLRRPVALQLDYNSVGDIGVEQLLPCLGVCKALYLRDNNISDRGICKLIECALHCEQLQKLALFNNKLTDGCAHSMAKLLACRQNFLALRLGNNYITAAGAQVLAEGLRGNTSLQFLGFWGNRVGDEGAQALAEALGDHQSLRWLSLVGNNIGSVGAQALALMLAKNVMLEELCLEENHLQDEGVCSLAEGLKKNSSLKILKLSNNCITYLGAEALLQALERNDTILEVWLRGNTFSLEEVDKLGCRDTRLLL

HEK293 [9] = assay: NOD2 signaling inhibitors in MDP-stimulated cells, cell-based, uHTS, luminescence (AID 2001); type: functional; settings: Homo sapiens
HEK293 [10] = assay: cells; type: functional, cell-based; settings: Homo sapiens; remark: listed apart in the source
[11] = Shn3 3'UTR reporter inhibitors, dose response, cell-based, Clone20 osteoblasts, firefly luciferase, cherry-picked (AID 624132); type: functional;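 further: firefly luciferase luminescence from reporter carrying the Shn3 3'UTR in osteoblasts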
[12] = control 3'UTR Renilla luciferase suppression, dose response, counter-screen for Shn3 inhibitor project, cell-based, Clone20-Shn3RL, cherry-picked (AID 624133); type: functional
[13] = P. falciparum 3D7-ScDHODH growth inhibitors, dose response, SYBR Green, dry powder samples (AID 1159570); type: functional, cell-based;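 further: parasite growth measured after 72 hours of compound exposure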
[14] = P. falciparum Dd2 growth inhibitors, dose response, SYBR Green, cherry-picked samples (AID 1159567); type: functional, cell-based
[15] = P. falciparum Dd2 growth inhibitors, dose response, SYBR Green, dry powder samples (AID 1159566); type: functional, cell-based;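 further: potency for growth inhibition with lower SYBR green DNA signal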
[16] = P. falciparum ATP4 D1247Y mutant growth inhibitors, dose response, NITD609-resistant line, SYBR Green, dry powder (AID 1159571); type: functional, cell-based;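 further: parasites synchronized at ring stage by sorbitol before testing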
[17] = inhibitors of HIV Env-driven cell fusion, dose response, cherry-pick (AID 652057); type: functional, cell-based
Paired box protein Pax-8 = Paired box protein Pax-8 (Homo sapiens, UniProt Q06710); assay: inhibitors of PAX8-driven TPO luciferase reporter, dose response, RMG-I cells, cherry-pick (AID 687027); type: functional, cell-based;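 further: luciferase reporter driven by Pax8 target thyroperoxidase promoter measured by SteadyGlo luminescence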
Paired box protein Pax-8, sequence (Q06710 whole entry, the tested form may be a part): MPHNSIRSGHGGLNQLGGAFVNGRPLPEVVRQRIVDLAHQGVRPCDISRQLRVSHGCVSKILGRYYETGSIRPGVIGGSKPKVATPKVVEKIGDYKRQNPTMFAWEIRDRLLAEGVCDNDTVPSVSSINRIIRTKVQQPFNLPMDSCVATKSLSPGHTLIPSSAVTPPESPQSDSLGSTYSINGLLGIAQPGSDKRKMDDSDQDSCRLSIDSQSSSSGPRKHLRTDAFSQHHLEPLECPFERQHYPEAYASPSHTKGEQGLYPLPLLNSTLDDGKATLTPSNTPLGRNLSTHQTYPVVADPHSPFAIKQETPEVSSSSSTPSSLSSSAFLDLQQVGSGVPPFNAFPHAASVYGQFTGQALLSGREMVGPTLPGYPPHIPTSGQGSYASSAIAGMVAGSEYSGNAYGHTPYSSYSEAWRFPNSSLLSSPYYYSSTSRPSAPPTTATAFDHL

[18] = inhibitors of clade B AD8 Env fusion, dose response, cell-based, cherry-pick (AID 652062); type: functional;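 further: luciferase signal from cell-cell fusion driven by HIV-1 clade B AD8 Env; potency is for inhibitors of fusion seen as a drop in luminescence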
[19] = NIH:OVCAR-3 ovarian cancer cell cytotoxicity, dose response, PAX8 inhibitor project, plate reader, dry powder samples (AID 743044); type: functional, cell-based
[20] = IGROV1 ovarian cancer cell cytotoxicity, dose response, PAX8 inhibitor project, plate reader, dry powder samples (AID 743043); type: functional, cell-based; settings: IGROV-1
[21] = cytotoxicity in OVCAR8 ovarian cancer cells, dose response, PAX8 project, cell-based, plate reader, dry powder samples (AID 743197); type: functional; settings: OVCAR-8

O=C1c2ccccc2-c2onc3ccc(Oc4ccccc4)c1c23
CC50 [1]: 9.25 µM (active)
EC50 [2]: 6.21 µM (active)
EC50 [3]: 6.7 µM (active)
IC50 (Hexokinase HKDC1): 70.7 µM (inactive)
AC50 [4]: 1.38 µM (active)
EC50 (Protein RecA): 0.452 µM (active)

COc1cc(C2c3c([nH]c(=O)[nH]c3=O)Nc3ccc4ccccc4c32)cc(OC)c1OC (stereo not given)
IC50 (Hexokinase HKDC1): 15.2 µM (active)

COc1cc(OC)c(OC)cc1/C=C1\CC(C)C/C(=C\c2cc(OC)c(OC)cc2OC)C1=O (stereo not given)
EC50 (HEK293 [5]): 6.38 µM (active)
IC50 (HEK293 [6]): 5.7 µM (active)
IC50 (HEK293 [7]): 15.7 µM (active)
EC50 [8]: 7.31 µM (active)
IC50 (HEK293 [9]): 6.92 µM (active)
IC50 (HEK293 [10]): > 20 µM (inactive)
AC50 [11]: 3.22 µM (active)
AC50 [12]: 5.08 µM (active)

COc1ccc(S(=O)(=O)Nc2cccc3c2O[C@H](CN(C)Cc2ccc(-c4ccccc4)cc2)[C@@H](C)CN([C@H](C)CO)C3=O)cc1
AC50 [13]: 1.02 µM (active)
AC50 [14]: 0.955 µM (active)
AC50 [15]: 0.587 µM (active)
AC50 [16]: 0.696 µM (active)

Cc1noc(C)c1S(=O)(=O)Nc1ccc2c(c1)CC(=O)N([C@@H](C)CO)C[C@@H](C)[C@H](CN(C)Cc1ccc(Cl)c(Cl)c1)O2
AC50 [17]: 10.9 µM (active)
AC50 (Paired box protein Pax-8): 1.19 µM (active)
AC50 [18]: 1.42 µM (active)
AC50 [19]: 41.1 µM (active)
AC50 [20]: 12.6 µM (active)
AC50 [21]: 21.1 µM (active)

C[C@H](CO)N1C[C@H](C)[C@@H](CN(C)Cc2ccc(-c3ccccc3)cc2)Oc2ccc(NS(=O)(=O)c3ccc(F)cc3)cc2CC1=O
AC50 (Paired box protein Pax-8): 8.82 µM (active)
AC50 [19]: 29.7 µM (active)
AC50 [20]: 27.8 µM (active)
AC50 [21]: 55.8 µM (active)

OC[C@H]1[C@H](c2ccccc2)C2(CN(Cc3ccccc3F)C2)N1Cc1ccccc1F
AC50 [13]: 1.1 µM (active)
AC50 [15]: 0.542 µM (active)
AC50 [16]: 1.15 µM (active)

C[C@H](CO)N1C[C@H](C)[C@@H](CN(C)S(=O)(=O)c2ccc(C(F)(F)F)cc2)OCc2ccccc2-c2c(n(C)c3ccccc23)C1=O
AC50 [13]: 0.777 µM (active)
AC50 [14]: 0.95 µM (active)
AC50 [15]: 0.599 µM (active)
AC50 [16]: 0.885 µM (active)

CCCC(=O)N1CC2(C1)CN(S(=O)(=O)c1ccc(C)cc1)[C@@H](CO)c1[nH]c3cc(OC)ccc3c12
AC50 [13]: 3.18 µM (active)
AC50 [14]: 2.14 µM (active)
AC50 [15]: 1.65 µM (active)
AC50 [16]: 1.67 µM (active)
